Measurements from article PMC12643354, “From Oxygen to Tellurium: The Impact of the Chalcogen on Nucleophilicities and Basicities of Isochalcogenourea Catalysts” (Angewandte Chemie (International Ed. in English), 2025).
Where two headings read alike, the source gives them in different places. Marks after values point to notes of the source that are not given here.

Columns and labels:
[1] = design: method as in PMID 21568333; details: (ind)2CH+, E = −8.76, dichloromethane, 20 °C; cited from earlier work
[2] = design: method as in PMID 21568333; details: (thq)2CH+, E = −8.22, dichloromethane, 20 °C; cited from earlier work
[3] = design: method as in PMID 21568333; details: (pyr)2CH+, E = −7.69, dichloromethane, 20 °C; cited from earlier work
[4] = design: method as in PMID 21568333; details: (dma)2CH+, E = −7.02, dichloromethane, 20 °C; cited from earlier work
[5] = dichloromethane, 20 °C; cited from earlier work
[6] = in dichloromethane, 20 °C; cited from earlier work
[7] = in methanolic aqueous solution (1:5-mixture); cited from earlier work
[8] = Kinetics of IChU reactions with reference electrophile (lil)2CH+ (stopped-flow photometry); assay type: physicochemical; details: E = −10.04, dichloromethane, 20 °C
Text: (§1) In order to systematically investigate the influence of the chalcogen atom on the nucleophilicity of DHPB‐derived IChUs (Ch = O, S, Se, and Te), we utilized Mayr's benzhydrylium methodology.^[ [107] ^]
In accordance with observations in previous studies on ITU reactivity,^[ [119] ^] mixing the strongly colored benzhydrylium tetrafluoroborates 18 with excess IChUs in dichloromethane gave rise to decolorization of the solutions due to the formation of isochalcogenouronium tetrafluoroborates 19, which are colourless (Figure 3a). […] To establish pseudo first‐order conditions and to secure a sufficient decay of the benzhydrylium's absorbance during the course of the reactions, the IChUs were employed at higher concentrations than the benzhydrylium ions. First‐order rate constants k obs (s^−1) were determined by fitting the mono‐exponential decay function in Equation (2) to the decreasing absorbance (A) of 18 during their reaction with the IChUs as exemplified for the reaction of ITeU3 with (ind)2CH^+ in Figure 3b. […]
First‐order rate constants k obs correlated linearly with the IChU concentration. Therefore, second‐order rate constants k 2 (L mol^−1 s^−1) were determined from the slope of the linear regression curves (Figure 3c ^[ [95] ^]). […]

[9] = Kinetics of IChU reactions with reference electrophile (ind)2CH+ (stopped-flow photometry); assay type: physicochemical; details: E = −8.76, dichloromethane, 20 °C
Text: as §1
(§2) In accordance with observations in previous studies on ITU reactivity,^[ [119] ^] mixing the strongly colored benzhydrylium tetrafluoroborates 18 with excess IChUs in dichloromethane gave rise to decolorization of the solutions due to the formation of isochalcogenouronium tetrafluoroborates 19, which are colourless (Figure 3a). Owing to reversibility of the C─N bond formation, generated adducts 19 from the IChU/benzhydrylium reactions were not isolated but characterized by ^1H, ^13C, and ^77Se NMR spectroscopy (the ^77Se nucleus is remarkably sensitive with observed changes of around 100 ppm when comparing the ^77Se resonances of free ISeUs with those of the corresponding selenouronium tetrafluoroborates^[ [95] ^]). The kinetics of the IChU reactions with the reference electrophiles 18 were traced by photometric methods using standard stopped‐flow techniques. To establish pseudo first‐order conditions and to secure a sufficient decay of the benzhydrylium's absorbance during the course of the reactions, the IChUs were employed at higher concentrations than the benzhydrylium ions. First‐order rate constants k obs (s^−1) were determined by fitting the mono‐exponential decay function in Equation (2) to the decreasing absorbance (A) of 18 during their reaction with the IChUs as exemplified for the reaction of ITeU3 with (ind)2CH^+ in Figure 3b. (2) A=A0e^−kobst+C […]
(§3) First‐order rate constants k obs correlated linearly with the IChU concentration. Therefore, second‐order rate constants k 2 (L mol^−1 s^−1) were determined from the slope of the linear regression curves (Figure 3c ^[ [95] ^]). Second‐order rate constants k 2 for all kinetically investigated reactions of DHPB‐derived IChUs (Ch = O, S, Se, and Te) with benzhydrylium ions 18 are gathered in Table 1.
(§4) Apart from CH2Cl2 also MeCN and THF are solvents that are commonly employed in reactions involving isochalcogenoureas. […]

[10] = Kinetics of IChU reactions with reference electrophile (pyr)2CH+ (stopped-flow photometry); assay type: physicochemical; details: E = −7.69, dichloromethane, 20 °C
Text: as §1, §2, §3, §4

[11] = Kinetics of IChU reactions with reference electrophile (dma)2CH+ (stopped-flow photometry); assay type: physicochemical; details: E = −7.02, dichloromethane, 20 °C
Text: as §1, §2, §3, §4

[12] = Mayr nucleophilicity parameters N and sN (benzhydrylium methodology, Mayr-Patz equation); assay type: physicochemical; details: dichloromethane, 20 °C
Text: (1) Mayr-Patz Equation: lgk20^∘C=sN(N+E)
The MPE is a linear‐free‐energy relationship that characterizes electrophiles by the electrophilicity parameter E and nucleophiles by the solvent‐dependent parameters N (nucleophilicity) and s N (sensitivity toward changes in the electrophile reactivity). By using the MPE (Equation (1)), the construction of comprehensive nucleophilicity and electrophilicity scales becomes possible, which facilitate the comparison of various classes of Lewis base organocatalysts.^[ [110], [111], [112], [113], [114], [115], [116], [117], [118], [119], [120] ^]
as §1
Figure 4 illustrates the linear correlations of the second‐order rate constants (lg k 2) with the electrophilicities E of Ar2CH^+ (18), which makes it possible to determine the Mayr nucleophilicity parameters N (and s N) for the DHPB‐derived IChUs IU3, ITU3, ISeU3, and ITeU3. […]
Figure 4 Linear correlations of second‐order rate constants (lg k 2) for the reactions of IU3, ITU3, ISeU3, and ITeU3 with Ar2CH^+ 18 (in dichloromethane at 20 °C) with the electrophilicities E of 18. The slopes of the linear correlations equal the nucleophile‐dependent sensitivity parameter s N. Intercepts on the abscissa reflect the nucleophilicity parameter N (N = –E at lg k 2 = 0).

[13] = Brønsted basicity pKaH by chemical shift imaging NMR method in DMSO and MeCN
Procedure: Recently, Wiskur's group reported potentiometrically determined pK aH values (that is, the pK a of the conjugate acids) of achiral ITUs based on the BTM and DHPB scaffolds in aqueous media.^[ [89], [128] ^] […] In this work, we applied this NMR spectroscopic method to determine the pK aH values of further IChUs in DMSO and MeCN (Supporting Information).
First, a stock solution containing the analyte, two basic indicators and tetramethyl silane was prepared with the respective solvent (DMSO or acetonitrile).
Then 5-10 mg of acid were weighed into a NMR tube and subsequently covered with glass beads.
Figure S50: 5-10 mg of acid in Figure S51: Cover with 1 mm
Afterwards, 550 μL of the stock solution was layered carefully over the glass beads and the acid. The sample is then put in a 28 °C water bath (for DMSO) for 20 - 24h or left on the bench at 22 °C (for acetonitrile) for 1.5 - 2 h and then the NMR measurement was carried out at 20 °C.
Figure S52: Overlay the acid with the Figure S54: Visualized gradient after stock solution of two indicators and the 18h in DMSO (with Bromthymolblue) […]
Figure S53: Development of gradients in temperated water S145 […]
13.4 Indicator and Acid Data
Table S67: Limiting shifts (δH for the fully protonated and δL for the free base), pKas and abbreviations of indicators and acids in acetonitrile.
Table S68: Limiting shifts (δH for the fully protonated and δL for the free base), pKas and abbreviations of indicators

[14] = Lewis basicity LB from equilibrium constants (photometric titrations) with benzhydrylium ions as reference Lewis acids; assay type: physicochemical; details: in dichloromethane, 20 °C
Procedure: (a) Lewis basicity. Previously, the Mayr group established a series of benzhydrylium ions as C‐centered Lewis acid references to construct a Lewis basicity scale in dichloromethane. Substituting experimentally determined equilibrium constants K (at 20 °C) and reported Lewis acidities LA for the benzhydrylium ions (Figure 7) in Equation (3) enables one to calculate the Lewis basicity (LB) of a Lewis base.^[ [121], [127] ^] (3) lgK(20^∘C)=LA+LB
The reversibility of the formation of adducts 19 (Equation (4)), which was also apparent in the kinetics by significant positive intercepts in several of the k obs versus [IChU] plots (Supporting Information), provided the opportunity to probe the thermodynamics of the C‐N bond‐forming reactions of IChUs with benzhydrylium ions as the reference Lewis acids in more detail.^[ [95] ^] (4) IChU+Ar2CH^+(18)⇌Ar2CH-IChU^+(19)
By assuming the validity of the Beer–Lambert law for dilute solutions, equilibrium constants K (L mol^−1) were determined in photometric titrations according to Equation (5) from the initial absorbance (A 0) of the benzhydrylium ions 18 and the absorbance at equilibrium (A, Equation 5), that is, after addition of a certain amount of an IChU.^[ [109], [110], [111], [112], [113], [114], [115], [119] ^] (5) K=[19]/[18]IChU=A0−A/AIChU

Row | Structure (SMILES) | Second-order rate constant k2 exptl [1] | Second-order rate constant k2 exptl [2] | Second-order rate constant k2 exptl [3] | Second-order rate constant k2 exptl [4] | Nucleophile-specific sensitivity parameter sN [5] | Nucleophilicity parameter N [5] | Lewis basicity LB [6] | Brønsted basicity pKaH(H2O) [7] | Second-order rate constant k2 exptl [8] [M⁻¹ s⁻¹] | Second-order rate constant k2 exptl [9] [M⁻¹ s⁻¹] | Second-order rate constant k2 exptl [10] [M⁻¹ s⁻¹] | Second-order rate constant k2 exptl [11] [M⁻¹ s⁻¹] | Nucleophile-specific sensitivity parameter sN [12] | Nucleophilicity parameter N [12] | Brønsted basicity pKaH(DMSO) ([13]; in DMSO) | Brønsted basicity pKaH(MeCN) ([13]; in MeCN) | Lewis basicity LB [14]
1 | c1ccc2c(c1)SC1=NCCCN12 [ITU3, DHPB] | 1.11 × 10^4 ^a) L mol^−1 s^−1 | 2.07 × 10^4 ^a) L mol^−1 s^−1 | 7.49 × 10^4 ^a) L mol^−1 s^−1 | 2.29 × 10^5 ^a) L mol^−1 s^−1 | 0.78 | 13.86 | 15.39 | 9.9 ^c) | – | – | – | – | – | – | – | – | –
2 | c1ccc2c(c1)[Te]C1=NCCCN12 [ITeU3, TeDHPB] | – | – | – | – | – | – | – | – | 19400 | 127000 | 731000 | 1.67e+06 | 0.65 | 16.63 | 11.0 | 19.7 | 17.13
